Test results from patent US20120225862A1, “HETEROARYL BENZAMIDES, COMPOSITIONS AND METHODS OF USE” (AUCKLAND UNIVSERVICES LIMITED, priority 2009, published 2012).

Columns and labels:
RCC4 = experiment: XTT IC50 / viability assay, RCC4 cells; type: cell-based, human; conditions: Homo sapiens, RCC4, 96 h; XTT assay, four days
Outline: (§1)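 RCC4 parental and VHL-reintroduced RCC4/VHL cells (DMEM, 10% FCS) treated with serially diluted drug for four days. Viability by XTT (0.3 mg/mL) with N-methyl dibenzopyrazine methyl sulfate, 1–2 h at 37 °C, absorbance 450 nm; IC50 by linear interpolation.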

RCC4/VHL = experiment: XTT IC50 assay, selectivity RCC4 versus RCC4 with VHL-reintroduced; type: cell-based, human; conditions: selectivity ratio of XTT IC50 values, RCC4 vs RCC4/VHL
Outline: as §1

Row | Compound | melting point | IC50 (RCC4) | Ratio (RCC4:RCC/VHL) (RCC4/VHL)
1 | O=C(Nc1cccnc1)c1ccc(CNS(=O)(=O)c2ccc(C34CC5CC(CC(C5)C3)C4)cc2)cc1 (hydrate or solvate) [Example 39, 4-[({[4-(1-Adamantyl)phenyl]sulfonyl}amino)methyl]-N-(3-pyridinyl)benzamide] | 220 to 222 °C |  | 
2 | O=C(Nc1cnc2ccccc2c1)c1ccc(CNS(=O)(=O)c2ccccc2)cc1 [Example 6, 4-(Phenylsulfonamidomethyl)-N-(quinolin-3-yl)benzamide] | 186 to 188 °C | > 20 µM | 
3 | O=C(Nc1cnccn1)c1ccc(CNS(=O)(=O)c2ccccc2)cc1 [Example 8, 4-(Phenylsulfonamidomethyl)-N-(pyrazin-2-yl)benzamide] | 200 to 202 °C | > 20 µM | 
4 | COC(=O)CCc1ccc(S(=O)(=O)NCc2ccc(C(=O)Nc3cccnc3)cc2)cc1 [Example 41, Methyl 3-{4-[({4-[(3-Pyridinylamino)carbonyl]benzyl}amino)sulfonyl]phenyl}propanoate] | 181 to 182 °C | > 20 µM | 
5 | O=C(Nc1cccnc1)c1ccc(CNS(=O)(=O)c2ccc([N+](=O)[O-])cc2)cc1 [Example 51, 4-((4-Nitrophenylsulfonamido)methyl)-N-(pyridin-3-yl)benzamide] | 241 to 243 °C | > 20 µM | 
6 | O=C(Nc1cccnc1)c1ccc(CNS(=O)(=O)c2ccc(N3CCCCC3)cc2)cc1 [Example 128, 4-[({[4-(1-Piperidinyl)phenyl]sulfonyl}amino)methyl]-N-(3-pyridinyl)benzamide] |  | < 1 µM | c (“c” reflects a ratio of >100)
7 | COC1CCN(c2ccc(S(=O)(=O)NCc3ccc(C(=O)Nc4cccnc4)cc3)cc2)CC1 [Example 129, 4-[({[4-(4-Methoxy-1-piperidinyl)phenyl]sulfonyl}amino)methyl]-N-(3-pyridinyl)benzamide] |  | < 1 µM | c (“c” reflects a ratio of >100)
8 | NCCOCCOCCOCCOCCOCCOCCCc1ccc(S(=O)(=O)NCc2ccc(C(=O)Nc3cccnc3)cc2)cc1 [Example 130, 4-[({[4-(21-Amino-4,7,10,13,16,19-hexaoxahenicos-1-yl)phenyl]sulfonyl}amino)methyl]-N-(3-pyridinyl)benzamide] |  | 1 to 20 µM | a (“a” reflects a ratio of RCC4/RCC-VHL+ ranging from 1 to 10)
9 | O=C(Nc1cccnc1)c1ccc(CNS(=O)(=O)c2ccc(NCCCN3CCOCC3)cc2)cc1 [Example 131, 4-({[(4-{[3-(4-Morpholinyl)propyl]amino}phenyl)sulfonyl]amino}methyl)-N-(3-pyridinyl)benzamide] |  | < 1 µM | b (“b” reflects from 10 to 100)
10 | CN1CCN(c2cccc(S(=O)(=O)NCc3ccc(C(=O)Nc4cccnc4)cc3)c2)CC1 [Example 132, 4-[({[3-(4-Methyl-1-piperazinyl)phenyl]sulfonyl}amino)methyl]-N-(3-pyridinyl)benzamide] |  | < 1 µM | b (“b” reflects from 10 to 100)
11 | CN(C)CCNc1ccc(S(=O)(=O)NCc2ccc(C(=O)Nc3cccnc3)cc2)cc1 [Example 133, 4-({[(4-{[2-(Dimethylamino)ethyl]amino}phenyl)sulfonyl]amino}methyl)-N-(3-pyridinyl)benzamide] |  | < 1 µM | c (“c” reflects a ratio of >100)
12 | O=C(Nc1cccnc1)c1ccc(CNS(=O)(=O)c2ccc(Cc3ccccc3)cc2)cc1 [Example 135, 4-({[(4-Benzylphenyl)sulfonyl]amino}methyl)-N-(3-pyridinyl)benzamide] |  | < 1 µM | b (“b” reflects from 10 to 100)
13 | O=C(Nc1cccnc1)c1ccc(CNS(=O)(=O)c2ccc(C#CCN3CCOCC3)cc2)cc1 [Example 136, 4-{[({4-[3-(4-Morpholinyl)-1-propynyl]phenyl}sulfonyl)amino]methyl}-N-(3-pyridinyl)benzamide] |  | < 1 µM | b (“b” reflects from 10 to 100)
14 | CN(C)CC#Cc1ccc(S(=O)(=O)NCc2ccc(C(=O)Nc3cccnc3)cc2)cc1 [Example 137, 4-{[({4-[3-(Dimethylamino)-1-propynyl]phenyl}sulfonyl)amino]methyl}-N-(3-pyridinyl)benzamide] |  | < 1 µM | b (“b” reflects from 10 to 100)
15 | CN(Cc1ccc(C(=O)Nc2cccnc2)cc1)S(=O)(=O)c1ccc(C(C)(C)C)cc1 [Example 138, 4-{[[(4-tert-Butylphenyl)sulfonyl](methyl)amino]methyl}-N-(3-pyridinyl)benzamide] |  | 1 to 20 µM | a (“a” reflects a ratio of RCC4/RCC-VHL+ ranging from 1 to 10)
16 | CCN(Cc1ccc(C(=O)Nc2cccnc2)cc1)S(=O)(=O)c1ccc(C(C)(C)C)cc1 [Example 139, 4-{[[(4-tert-Butylphenyl)sulfonyl](ethyl)amino]methyl}-N-(3-pyridinyl)benzamide] |  | > 20 µM | a (“a” reflects a ratio of RCC4/RCC-VHL+ ranging from 1 to 10)
17 | O=C(Nc1cccnc1)c1ccc(CNS(=O)(=O)c2ccc(CCCN3CCOCC3)cc2)cc1 [Example 141, 4-{[({4-[3-(4-Morpholinyl)propyl]phenyl}sulfonyl)amino]methyl}-N-(3-pyridinyl)benzamide] |  | < 1 µM | c (“c” reflects a ratio of >100)
18 | CN(C)CCCc1ccc(S(=O)(=O)NCc2ccc(C(=O)Nc3cccnc3)cc2)cc1 [Example 142, 4-{[({4-[3-(Dimethylamino)propyl]phenyl}sulfonyl)amino]methyl}-N-(3-pyridinyl)benzamide] |  | < 1 µM | b (“b” reflects from 10 to 100)

Second part, led by results:

Row | melting point | Compound | IC50 (RCC4) | Ratio (RCC4:RCC/VHL) (RCC4/VHL)
19 | 229 to 232 °C | O=C(Nc1cccnc1)c1ccc(CNS(=O)(=O)c2ccc(C34CC5CC(CC(Cl)(C5)C3)C4)cc2)cc1 (hydrate or solvate) [Example 40, 4-[({[4-(3-chloro-1-adamantyl)phenyl]sulfonyl}amino)methyl]-N-(3-pyridinyl)benzamide] |  | 
20 | 189 to 191 °C | O=C(Nc1nccs1)c1ccc(CNS(=O)(=O)c2ccccc2)cc1 [Example 4, 4-(Phenylsulfonamidomethyl)-N-(thiazol-2-yl)benzamide] | > 20 µM | 
21 | 180 to 182 °C | O=C(Nc1cc[nH]n1)c1ccc(CNS(=O)(=O)c2ccccc2)cc1 [Example 5, 4-(Phenylsulfonamidomethyl)-N-(1H-pyrazol-3-yl)benzamide] | > 20 µM | 
22 | 198 to 201 °C | O=C(Nc1cccc2ncccc12)c1ccc(CNS(=O)(=O)c2ccccc2)cc1 [Example 7, 4-(Phenylsulfonamidomethyl)-N-(quinolin-5-yl)benzamide] | > 20 µM | 
23 | 180 to 182 °C | O=C(Nc1ncccn1)c1ccc(CNS(=O)(=O)c2ccccc2)cc1 [Example 9, 4-(Phenylsulfonamidomethyl)-N-(pyrimidin-2-yl)benzamide] | > 20 µM | 
24 | 155 to 157 °C | COC(=O)c1ccccc1S(=O)(=O)NCc1ccc(C(=O)Nc2cccnc2)cc1 [Example 14, Methyl 2-(N-(4-(Pyridin-3-ylcarbamoyl)benzyl)sulfamoyl)benzoate] | > 20 µM | 
25 | 234 to 237 °C | O=C(Nc1cccnc1)c1ccc(CNS(=O)(=O)c2ccccc2C(F)(F)F)cc1 [Example 15, N-(pyridin-3-yl)-4-((2-(trifluoromethyl)phenylsulfonamido)methyl)benzamide] | > 20 µM | 
26 | 212 to 215 °C | COC(=O)c1ccc(S(=O)(=O)NCc2ccc(C(=O)Nc3cccnc3)cc2)cc1 [Example 47, Methyl 4-(N-(4-(Pyridin-3-ylcarbamoyl)benzyl)sulfamoyl)benzoate] | > 20 µM | 
27 | 211 to 213 °C | N#Cc1cc(S(=O)(=O)NCc2ccc(C(=O)Nc3cccnc3)cc2)ccc1F [Example 71, 4-((3-Cyano-4-fluorophenylsulfonamido)methyl)-N-(pyridin-3-yl)benzamide] |  | 
28 | 261 to 263 °C | CC(C)(C)c1ccc(S(=O)(=O)NCc2ccc(C(=O)Nc3ccncc3)cc2)cc1 [Example 106, 4-((4-tert-Butylphenylsulfonamido)methyl)-N-(pyridin-4-yl)benzamide] |  | 
29 | 215 to 218 °C | CCC(=O)Nc1cccc(S(=O)(=O)NCc2ccc(C(=O)Nc3cccnc3)cc2)c1 [Example 143, 4-[({[3-(Propionylamino)phenyl]sulfonyl}amino)methyl]-N-(3-pyridinyl)benzamide] |  | 
30 | 178 to 180 °C | C=CC(=O)Nc1cccc(S(=O)(=O)NCc2ccc(C(=O)Nc3cccnc3)cc2)c1 [Example 144, 4-[({[3-(Acryloylamino)phenyl]sulfonyl}amino)methyl]-N-(3-pyridinyl)benzamide] |  | 
31 | 162 to 163 °C | Cc1cc(CNS(=O)(=O)c2ccc(C(C)(C)C)cc2)ccc1C(=O)Nc1cccnc1 [Example 145, 4-({[(4-tert-Butylphenyl)sulfonyl]amino}methyl)-2-methyl-N-(3-pyridinyl)benzamide] |  | 
32 | 185 to 187 °C | CC(C)(C)c1ccc(S(=O)(=O)NCc2ccc(C(=O)Nc3cccnc3)c(F)c2)cc1 [Example 146, 4-({[(4-tert-Butylphenyl)sulfonyl]amino}methyl)-2-fluoro-N-(3-pyridinyl)benzamide] |  | 
33 | 203 to 205 °C | Cc1cc(C(=O)Nc2cccnc2)ccc1CNS(=O)(=O)c1ccc(C(C)(C)C)cc1 [Example 147, 4-({[(4-tert-Butylphenyl)sulfonyl]amino}methyl)-3-methyl-N-(3-pyridinyl)benzamide] |  | 
34 | 198 to 200 °C | CC(C)(C)c1ccc(S(=O)(=O)NCc2ccc(C(=O)Nc3cccnc3)cc2F)cc1 [Example 148, 4-({[(4-tert-Butylphenyl)sulfonyl]amino}methyl)-3-fluoro-N-(3-pyridinyl)benzamide] |  | 
